Reference: the METLIN SMRT retention time set (Domingo-Almenara et al. 2019)

Test: gradient 5% acetonitrile 3 min, to 50% in 2 min, to 85% in 15 min, held 3 min, 100 µL/min
Details: column: Zorbax Extend-C18 2.1 x 50 mm; eluents: water / acetonitrile, 0.1% formic acid
Procedure, shortened: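 Pure standards were run in mixtures of ~100 molecules by HPLC coupled to a quadrupole time-of-flight mass spectrometer. The column was a Zorbax Extend-C18 (2.1 × 50 mm, 1.8 μm) at 100 μL/min, with water and acetonitrile each containing 0.1% formic acid, in positive and negative ionization mode. Dead and dwell volumes were 40 μL and 900 μL. Retention time was taken from computationally picked adduct peaks, each manually inspected, with data collected over 3 months.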

SMILES | RP-LC retention time [s]
CCc1ccc(C(=O)CC2(O)C(=O)Nc3c(C)cccc32)cc1 (centres undefined) | 807
CCCCn1c(=O)c2ccccc2n(Cc2nc(-c3cccc(C(F)(F)F)c3)no2)c1=O | 1240
CC(NC(=O)c1cn(-c2cc(-c3nc(C(C)(C)C)no3)ccn2)cn1)c1ccccc1 (centres undefined) | 1100
CCCc1ccc(-c2csc(NC(=O)c3ccc(C)o3)n2)cc1 | 1210
O=C1CN(Cc2ccccc2)[C@H]2CS(=O)(=O)C[C@H]2N1c1ccc(Br)cc1 | 845
CCn1c(=O)c(C)nc2cc(-c3noc(-c4cc(OC)c(OC)c(OC)c4)n3)ccc21 | 919
O=C(Nc1ccc(Cl)cc1)N1CCC(N2CCN(Cc3ccc(F)cc3)C(=O)C2=O)CC1 | 799
COc1ccc(-c2noc(-c3ccc(=O)n(Cc4ccccn4)c3)n2)cc1OC | 743
CCn1nnc2cc(-c3noc(CNC(=O)c4ccccc4)n3)ccc21 | 772
Cc1noc(-c2ccc(NC(=O)C3c4ccccc4Oc4ccccc43)cc2)n1 | 983
Cc1ccc(CNc2cc(-n3ccnc3)ncn2)cc1 | 648
Cn1c(=O)c2c(-c3ccc(F)cc3)c(C#N)c(N)nc2n(C)c1=O | 757
CC(C)CCNC(=O)N1CCN(Cc2nc3cccnc3n2-c2ccc(F)cc2)CC1 | 667
COc1cc(Nc2nc(-c3nnn(-c4ccc(Cl)cc4)c3C)ns2)cc(OC)c1 | 1100
COc1ccc(OC)c(CNC(=O)Cc2nnc(-c3cccc(Br)c3)o2)c1 | 796
O=C(c1cccs1)N1[C@H]2CC[C@@H]1c1cnc(-c3ccc(F)cc3)nc1C2 | 979
COc1cccc(C(=O)Nc2nc(-c3ccc4c(c3)NC(=O)CO4)c(C)s2)c1 | 877
CC(C)CNC(=O)CCc1nc2ccccc2n(CC(=O)NCc2ccc(F)cc2)c1=O | 783
Cc1ncc(-c2ccnc(Nc3ccc(S(C)(=O)=O)cc3)n2)n1C(C)C | 636
Cc1nc(-c2noc(-c3ccccc3)n2)cn1CC(=O)Nc1ccc2c(c1)OCO2 | 803
O=C(CCc1c(-c2ccc(Cl)cc2)nc2ccccn12)Nc1cccc(C(F)(F)F)c1 | 782
CC(C)(C)OC(=O)N1CCN(c2ncnc(N)c2[N+](=O)[O-])CC1 | 691
O=C(COc1cccc2c(=O)[nH]ccc12)c1ccccc1 | 806
CCc1cc(C(=O)Nc2ccc(F)c(F)c2)no1 | 952
CCCCCCC(=O)Nc1nc(-c2ccc(C)cc2)cs1 | 1190
COc1ccc2c(c1)C1(CCN(C(=O)c3ccc(C)cc3)C1)C(=O)N2 (centres undefined) | 727

SMILES | RP-LC retention time [s]
COCCCNC(=O)c1nn(-c2ccc(Cl)cc2)c2c(=O)n(C)cnc12 | 716
COCCN(CCOC)C(=O)C12CCC(C)(C(=O)C1)C2(C)C (centres undefined) | 706
CCCN1CCN(c2ncc3c(n2)CCN(Cc2cc(F)cc(F)c2)C3)CC1 | 549
Cc1ccc(-c2noc(CSc3nc4cc5c(cc4c(=O)n3Cc3ccccc3)OCO5)n2)cc1 | 1300
COc1ccc(-c2nocc2CCC(=O)O)cc1 | 712
COc1ccc(-c2ccnc3nc(Cc4cc(F)cc(F)c4)nn23)c(F)c1 | 973
Cc1ccc(-n2cc3c(c(C(=O)NC(C)C)c2=O)CC(C)(C)CC3=O)cc1 | 932
O=C(c1cc(F)ccc1F)N1CCC2(CC1)NC(=O)N(Cc1ccc(Cl)cc1)C2=O | 890
O=C(Cn1ccc2ccccc21)NCCn1ncccc1=O | 625
CN1C(=O)c2cccnc2Sc2cc(NC(=O)C(C)(C)C)ccc21 | 735
COc1cc(Cl)c(NS(=O)(=O)c2cc(-c3cc(C(F)(F)F)[nH]n3)sc2C)c(OC)c1 | 1030
c1cncc(CN2CCC(n3ncc4c(N5CCOCC5)nc(-c5ccc6[nH]ccc6c5)nc43)CC2)c1 | 675
CC(=O)Oc1ccc(Nc2cc(C)nc3nc(-c4cccnc4)nn23)cc1 | 688
CC1(C)CC2CC(C)(CN2c2nc(-c3ccccc3)nc3ccccc23)C1 (centres undefined) | 948
Cc1ccc(C(=O)CSc2ccc(NC(=O)C(C)C)nn2)c(C)c1 | 890
COc1ccc2c(OCc3nnc4ccc(-c5ccccc5)nn34)ccnc2c1 | 690
NCC(=O)c1cccc2ccc[n+]([O-])c12 | 678
Cc1noc(C2(NC(=O)c3ccc(C)s3)CCCCC2)n1 | 868
NCC(O)COc1cccc2ccccc12 (centres undefined) | 679
Cc1cc(C(=O)Nc2cccc(Cl)c2)nc2cc(-c3ccco3)nn12 | 1020
COc1cc(C)c(Sc2cnc(NC(=O)c3ccc(CNC(C)C(C)(C)C)cc3)s2)cc1C(=O)N1CCN(C(C)=O)CC1 (centres undefined) | 762
CCCCC(=O)Nc1ccc2nc(N3CCN(c4ccccc4Cl)CC3)cc(C(=O)O)c2c1 | 1010
Cc1ccccc1NC(=O)Cn1nc2cc(-c3ccccc3)nc(C)n2c1=O | 907
CCOc1ccccc1NC(=O)Cn1nc2c(Oc3cccc(F)c3)nccn2c1=O | 906
CCN(CC)C(=O)c1ccccc1NC(=O)c1ccc2c(c1)-c1ccccc1S(=O)(=O)N2CC | 992

The remaining lines, values ahead:

RP-LC retention time [s] | SMILES
927 | CC(C)NC(=O)C1CCN(c2nc3ccc(-c4ccccc4)nc3s2)CC1
665 | O=C(Cc1ccccc1Br)NC1CCN(c2cc(-c3ccccc3)[nH]n2)C1 (centres undefined)
1030 | Cc1ccc(CNC(=O)C2(C)CN(S(=O)(=O)c3ccccc3)CC(=O)N2CCC(C)C)cc1 (centres undefined)
576 | CS(=O)(=O)N1CC[C@H]2CN(Cc3cn[nH]c3-c3ccc(F)cc3)C[C@@]2(CF)C1
669 | COc1ccc2c(C)c(C(=O)NCCn3ncccc3=O)oc2c1
535 | CCOC(=O)c1c(CN2CCOCC2)n(C)c2cc(-c3cccnc3)c(O)cc12
613 | COC(=O)CSCC(=O)Nc1cc(C(F)(F)F)ccc1Cl
792 | CCSCCOC(=O)C1=C(C)NC(=O)NC1c1cccc(OC)c1OC (centres undefined)
862 | CCCN1C(=O)Cc2ccccc2C1C(=O)NC1CCCCCC1 (centres undefined)
651 | CCNc1cc(N2CCC(CCC(=O)NCc3ccccc3C)CC2)ncn1
882 | CCc1ccc(C2=C(C)C(N3CCC(C(=O)NCCc4ccco4)CC3)=NS2(=O)=O)cc1
678 | CCN1C(=O)c2c(C(=O)N3CCOCC3)ncn2CC1(C)C(=O)NCc1ccc(F)cc1 (centres undefined)
621 | CC(Oc1ccccc1)C(=O)N1CCN(c2nc(CN3CCOCC3)cs2)CC1 (centres undefined)
816 | CCc1nc2cc(N3CCC(C(=O)NCc4cccs4)CC3)cnc2nc1CC
720 | Cc1noc(C)c1CC(=O)N1CCC2(CC1)C(=O)N(C)c1ccccc12
768 | NC(=O)N/N=C1\CC2CC1C1C=CCC21 (centres undefined)
610 | CC(=O)N[C@@H]1CN(C(=O)Cc2ccccc2Br)C[C@H]1CO
868 | Cc1nc(-c2csc(S(=O)(=O)N3CCC(C(=O)NCCC(C)C)CC3)c2)no1
584 | COCC1CN(C2CCC2)CC12CCN(C(=O)C(C)C)CC2 (centres undefined)

RP-LC retention time [s] | SMILES
588 | CCc1cc(C2CCCN2Cc2ccc(OC)c(O)c2)on1 (centres undefined)
1090 | O=S(=O)(c1ccc(-c2noc(COc3ccc(Cl)cc3)n2)cc1)N1CCOCC1
891 | Cc1ccc(C(=O)N2CCN(c3ccc(=O)n(-c4cccc(Cl)c4)n3)CC2)s1
577 | O=C(NCc1cccnc1)C1CCCN(c2ncnc3c2nc2n3CCCCC2)C1 (centres undefined)
795 | COc1cc(NC(=O)Cn2nc3c(N4CCSCC4)nccn3c2=O)cc(OC)c1
698 | CCCCS(=O)(=O)N1CCCC(Cn2c(C3CC3)nc3cccnc32)C1 (centres undefined)
786 | CC1=C(c2ccc(C)cc2)S(=O)(=O)N=C1N1CCCN(C(=O)c2ccoc2)CC1
884 | O=C(Nc1cccc(Cl)c1)C1CCN(S(=O)(=O)c2cc(C(=O)N3CCCC3)cs2)CC1
659 | CCN1C(=O)c2cc(C(=O)NCc3ccccc3F)nn2CC1(C)C(=O)NC1CCCC1 (centres undefined)
878 | CCOC(=O)C1CCN(C(=O)C2CCN(S(=O)(=O)c3ccc(OCC)cc3)CC2)CC1
830 | CCOC(=O)C1CCCN(S(=O)(=O)c2cccs2)C1 (centres undefined)
704 | COCC(C)NC(=O)C(=O)c1cn(CC(=O)N2CCOCC2)c2ccccc12 (centres undefined)
802 | O=C(NCC1CCCCC1)C1CCN(C(=O)c2ncn3c2COC(c2ccccc2)C3)CC1 (centres undefined)
757 | Cc1ccc(CNC(=O)Cn2ncc3c(c2=O)N(C2CC2)C(=O)CS3)cc1C
863 | Cc1ccsc1C(=O)Nc1ccc(N2CCN(C3CCCCC3)C2=O)nc1
1020 | COc1ccc(-c2noc(C3CCCN3C(=O)Nc3cccc(Cl)c3)n2)cc1 (centres undefined)
761 | O=C(NCc1ccc(F)cc1F)C1CCN(c2ncnc3c2oc2ccccc23)CC1
793 | CC1Cc2ccccc2N1C(=O)c1ccc(=O)n(CCC(=O)NC2CCCCC2)n1 (centres undefined)
904 | COC(=O)C1=CN(C2CC2)c2cc(N3CCN(c4ccccc4OC)CC3)c(F)cc2S1(=O)=O
